Data reported in patent US8835379B2, “Derivatives of CGRP” (Novo Nordisk A/S, priority 2009, dated 2014).

Tests used:
[1] = target: CGRP receptor (calcitonin receptor-like receptor (CRLR), receptor activity modifying protein-1 (RAMP1)) (Homo sapiens, UniProt O60894+Q16602); assay: CGRP-induced cAMP accumulation in CGRP receptor expressing cells (CHO, CRE luciferase reporter); type: cell-based
Method: Chinese hamster ovary (CHO) cells were stably transfected with calcitonin receptor-like receptor (CRLR), receptor activity modifying protein-1 (RAMP1) and CRE luciferase (cAMP responsive element for control of luciferase gene expression). Luciferase is a reporter-gene reporting accumulation of intracellular cAMP).
Cells were cultured in F12 media supplemented with GlutaMAX™ (Gibco cat no 31765-027), FBS (10%, Gibco 16140-071), Penicillin-streptomycin (1%, Lonza DE-17-602E), G418 (400 μg/ml, Gibco 10131-027), Blasticidine (10 μg/ml, Corning cat no 15205), Hygromycin (400 μg/ml, Calbiochem cat no 400052).
Cells were seeded in a 96 well plate (Packard #6005180), 20000 cells/well in 100 μl media on the day before experimentation. On the day of experimentation media was replaced by assay medium (Dulbecco's media w/o phenol red (Gibco cat no 11880-028) supplemented with 10% FBS (10%, Gibco 16140-071), Hepes (10 mM, Gibco cat no 15630), GlutaMAX™ (2 mM, Gibco cat no 35050), 50 μl/well.
Peptides were diluted in assay media before added to cells for stimulation, 50 μl/well.
Cells were incubated 5% CO2, 37° C. for 4 hours.
Assay medium and peptides were replaced by phosphate buffered saline (PBS, Gibco cat no 14040-091), 100 μl/well and LucLite™ (PerkinElmer, cat no 6076759), 100 μl/well were added. The plate was sealed before incubation for 30 min at room temperature (21° C.). Luciferase activity (luminescens, 7 s/well) was measured (TopCount®, NXT, Packard).
Dose-response curves were fitted by use of GraphPad Prism software and pEC50 values were calculated. Data were given as mean±SEM, n=2 and each analogue was tested twice.

[2] = Pharmacokinetic properties of CGRP and analogues, plasma level by CGRP ELISA; type: in vivo; settings: male, Sprague Dawley, rat, sc, SD rats, single s.c. injection, Analog alpha1 151 nmol/kg, Analogue beta1 231 nmol/kg
Method: Male Sprague Dawley rats (n=24) weighing approximately 250 g were used for the combined pharmacokinetic (T½, Cmaxetc.) and pharmacodynamic (GLP-1 release) study. The rats were divided in 4 groups with n=6 rats per group. The rats were treated with a single subcutaneous injection (1 ml/kg) of vehicle, alpha-CGRP (138 nmol/kg), Analogue beta1 (231 nmol/kg) or Analog alpha1 (151 nmol/kg). Blood (200 μl) was sampled from vena sublingualis from unanaesthetised rats pre-dose and at 0.5, 1, 3, 7 and 24 hours post dosing. Blood was collected in tubes containing EDTA. The samples were kept on ice and centrifuged. The plasma was kept at −20° C. until analysis for CGRP analog and total GLP-1.
A commercial available kit (Human CGRP ELISA, cat. #A05481, SPIbio) was used for monitoring the plasma levels of CGRP-analogues. Briefly, the assay was a two-sited enzyme-linked immuno sorbent assay (ELISA) using two antibodies against human CGRP. A monoclonal antibody was immobilized to the surface of micro plate wells. Five micro liter of plasma samples or calibrators were applied to the appropriate wells and incubated for 2 hours together with 100 μL buffer and 100 μL AChE-conjugated Fab′ fragment. […] The color intensity was determined by spectrophotometer at 405 nm. […] The lower limit of quantification of the modified CGRP assay was approximately 750 pM and the imprecision was (% CV)<10%.

[3] = CGRP-induced reduction in food intake by automatic food intake measurements (FeedWin); type: in vivo, Sprague Dawley (SD) rats; settings: SD rats, s.c., monitored for 48 hours, FIG. 4
Source text: Upon arrival male Sprague Dawley (SD) rats were housed two per cage with a dividing wall between them. They were housed at reversed diurnal rhythm and with environmental enrichment. The rats were acclimatized to reversed diurnal rhythm for at least 1 week before being transferred to the experimental system cages (single housed). They were acclimatized to the experimental system cages for an additional 5-6 days before start of the experiment. The rats had ad libitum access to food (Altromin 1324) and water during acclimatization periods.
One day before start of the study the rats were divided in three or four groups (n=5-8) based on body weight (250-300 g).
16 hours before start of the study the rats were fasted. Food was returned in connection with dosing. The rats received a single injection subcutaneously (s.c., 1 ml/kg) with vehicle or CGRP analogue. Intraperitoneally dosing (i.p., 1 ml/kg) was used in the first experiment of the al analogue. The effect of analogues on food and water consumption was examined in a “FeedWIN” system (Ellegaard Systems A/S, Faaborg, Denmark). The system contained 32 stations. In each station the continuous water and food consumption for a single rat was recorded.
A station consisted of a cage with metal lid and two scales placed on each side of the cage. […] Data was collected each 15 minutes and up to 48 hours and expressed as accumulated food intake (Mean±SEM).

Chain of CGRP receptor (calcitonin receptor-like receptor (CRLR), receptor activity modifying protein-1 (RAMP1)) (Q16602 23-461, species assumed): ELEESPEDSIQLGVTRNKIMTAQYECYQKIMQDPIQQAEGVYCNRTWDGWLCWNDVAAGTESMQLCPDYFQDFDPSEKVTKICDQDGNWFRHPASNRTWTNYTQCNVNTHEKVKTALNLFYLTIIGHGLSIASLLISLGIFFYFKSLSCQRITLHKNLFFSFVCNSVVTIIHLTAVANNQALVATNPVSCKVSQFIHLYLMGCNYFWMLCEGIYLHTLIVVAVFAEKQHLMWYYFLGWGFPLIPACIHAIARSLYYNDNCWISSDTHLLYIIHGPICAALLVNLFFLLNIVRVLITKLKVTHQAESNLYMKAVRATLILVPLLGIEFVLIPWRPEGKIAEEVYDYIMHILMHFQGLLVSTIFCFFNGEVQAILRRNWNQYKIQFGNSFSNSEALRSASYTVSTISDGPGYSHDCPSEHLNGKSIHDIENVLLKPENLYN
Chain of CGRP receptor (calcitonin receptor-like receptor (CRLR), receptor activity modifying protein-1 (RAMP1)) (O60894 27-148, species assumed): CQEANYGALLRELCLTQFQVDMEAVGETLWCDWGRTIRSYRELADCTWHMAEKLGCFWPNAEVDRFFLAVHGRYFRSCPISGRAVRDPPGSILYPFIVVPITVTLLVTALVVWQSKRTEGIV

Compound	EC50 [1] [nM]	Cmax [2] [nM]	half-life ([2]; read-out: T½) [h]	accumulated food intake [3]
CC(C)C[C@H](NC(=O)CNC(=O)[C@H](C)NC(=O)[C@H](CC(C)C)NC(=O)[C@H](CCCNC(=N)N)NC(=O)[C@H](Cc1c[nH]cn1)NC(=O)[C@@H](NC(=O)[C@@H](NC(=O)[C@@H]1CSSC[C@H](NC(=O)[C@H](CO)NC(=O)COCCOCCNC(=O)CC[C@H](NC(=O)CCCCCCCCCCCCCCCCC(=O)O)C(=O)O)C(=O)N[C@@H](CC(=O)O)C(=O)N[C@@H]([C@@H](C)O)C(=O)N[C@@H](C)C(=O)N[C@@H]([C@@H](C)O)C(=O)N1)C(C)C)[C@@H](C)O)C(=O)N[C@@H](CC(C)C)C(=O)N[C@@H](CO)C(=O)N[C@@H](CCCNC(=N)N)C(=O)N[C@@H](CO)C(=O)NCC(=O)NCC(=O)N[C@H](C(=O)N[C@H](C(=O)N[C@@H](CCCCN)C(=O)N[C@@H](CC(N)=O)C(=O)N[C@@H](CC(N)=O)C(=O)N[C@@H](Cc1ccccc1)C(=O)N[C@H](C(=O)N1CCC[C@H]1C(=O)N[C@H](C(=O)N[C@@H](CC(N)=O)C(=O)N[C@H](C(=O)NCC(=O)N[C@@H](CO)C(=O)N[C@@H](CCCCN)C(=O)N[C@@H](C)C(=O)N[C@@H](Cc1ccccc1)C(N)=O)C(C)C)[C@@H](C)O)C(C)C)C(C)C)C(C)C [Analogue alpha 1, N-alpha-[2-(2-{2-[(S)-4-Carboxy-4-(17-carboxyheptadecanoylamino)butyrylamino]ethoxy}ethoxy)acetyl][Ser1]alpha-human CGRP peptide]	0.09	250	> 7	–
N-alpha-[2-(2-{2-[(S)-4-Carboxy-4-(17-carboxyheptadecanoylamino)butyrylamino]ethoxy}ethoxy)acetyl][Ser1]beta-human CGRP peptide [Analogue beta 1]	–	–	–	Reduction in accumulated food intake
